In patent US20060069132A1, “Azolecarboxamide herbicides” (priority 2004, published 2006):

Columns and labels:
Assay in all cases: Test C postemergence herbicide test
green foxtail = type: in vivo, Setaria viridis
In short: (§1)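 Weeds and wheat were sprayed after emergence, at a height of 2 to 18 cm (1–4 leaves), and paddy barnyardgrass was flooded and treated at two leaves. Assessment took place 12–14 days later in the greenhouse on a 0-to-100 visual control scale. A dash means no result was obtained.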

canarygrass = type: in vivo, Phalaris minor
In short: as §1

wheat = type: in vivo, Triticum aestivum
In short: as §1

blackgrass = type: in vivo, Alopecurus myosuroides; conditions: for Blackgrass plant response rating: 500 g ai/ha
In short: as §1

windgrass = type: in vivo, Apera spica-venti
In short: as §1

Italian ryegrass = type: in vivo, Lolium multiflorum
In short: as §1

downy bromegrass = type: in vivo, Bromus tectorum
In short: as §1

wild oat = type: in vivo, Avenafatua
In short: as §1

winter barley = type: in vivo, Hordeum vulgare; conditions: for Barley, Winter plant response rating: 500 g ai/ha
In short: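 Ratings (0 = no effect, 100 = complete control) come from visual comparison with untreated plants after 12 to 14 days in the greenhouse. Treatment was postemergence at the 1- to 4-leaf stage (2–18 cm), or at the 2-leaf stage for the flooded paddy barnyardgrass.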

[1] = Postemergence, 250 g ai/ha, scale 0 to 100, 0 no effect, 100 complete control
[2] = postemergence, 125 g ai/ha, scale 0 to 100
[3] = postemergence, 62 g ai/ha, scale 0 to 100
[4] = postemergence, 31 g ai/ha, scale 0 to 100
[5] = postemergence, 125 g ai/ha, scale 0 to 100 (0 no effect, 100 complete control)
[6] = postemergence, 62 g ai/ha, scale 0 to 100 (0 no effect, 100 complete control)
[7] = Postemergence, 500 g ai/ha, scale 0 to 100
[8] = Postemergence, 500 g ai/ha, scale 0 to 100, 0 no effect, 100 complete control

Row | SMILES | Plant response rating, Foxtail, Green (green foxtail; [1]) | Plant response rating, Foxtail, Green (green foxtail; [2]) | Plant response rating, Foxtail, Green (green foxtail; [3]) | Plant response rating, Canarygrass (canarygrass; [1]) | Plant response rating, Canarygrass (canarygrass; [2]) | Plant response rating, Canarygrass (canarygrass; [3]) | Plant response rating, Wheat (wheat; [2]) | Plant response rating, Wheat (wheat; [3]) | Plant response rating, Blackgrass (blackgrass; [1]) | Plant response rating, Blackgrass (blackgrass; [2]) | Plant response rating, Blackgrass (blackgrass; [3]) | Plant response rating, Windgrass (windgrass; [2]) | Plant response rating, Windgrass (windgrass; [3]) | Plant response rating, Ryegrass, Italian (Italian ryegrass; [2]) | Plant response rating, Ryegrass, Italian (Italian ryegrass; [3]) | Plant response rating, Bromegrass, Downy (downy bromegrass; [1]) | Plant response rating, Bromegrass, Downy (downy bromegrass; [3]) | Plant response rating, Oat, Wild (wild oat; [2]) | Plant response rating, Oat, Wild (wild oat; [3]) | Plant response rating, Barley, Winter (winter barley; [1]) | further results
1 | CCOC(=O)c1ccc(F)c(NC(=O)c2cc(C3(C)CC3)nn2CC)c1 [Compound 296] | 60 | 50 | 40 | 55 | 40 | 30 | 35 | 35 | 75 | 65 | 60 | 50 | 45 | 45 | 35 | 45 | 35 | 60 | 35 | 45 | Plant response rating, Canarygrass (canarygrass; [4]): 30; Plant response rating, Wheat (wheat; [1]): 40; Plant response rating, Blackgrass (blackgrass; [4]): 45; Plant response rating, Windgrass (windgrass; [1]): 65; Plant response rating, Ryegrass, Italian (Italian ryegrass; [1]): 65; Plant response rating, Bromegrass, Downy (downy bromegrass; [2]): 35; Plant response rating, Bromegrass, Downy (downy bromegrass; [4]): 25; Plant response rating, Oat, Wild (wild oat; [1]): 60; Plant response rating, Barley, Winter (winter barley; [5]): 40; Plant response rating, Barley, Winter (winter barley; [4]): 30; Plant response rating, Barley, Winter (winter barley; [6]): 35
2 | CCn1nc(C2(C)CC2)cc1C(=O)Nc1cccc(C(=O)N2CC=CC2)c1 [Compound 304] | 50 | 45 | 40 | 45 | 40 | 40 | 40 | 35 | 70 | 50 | 60 | 35 | 35 | 50 | 50 | 40 | 40 | 60 | 60 | 35 | Foxtail, Green plant response rating (green foxtail; [7]): 60; Canarygrass plant response rating (canarygrass; [7]): 45; Wheat plant response rating (wheat; [7]): 40; Plant response rating, Wheat (wheat; [1]): 40; Blackgrass plant response rating (blackgrass; Postemergence, scale 0 to 100): 95; Windgrass plant response rating (windgrass; [7]): 45; Plant response rating, Windgrass (windgrass; [1]): 40; Ryegrass, Italian plant response rating (Italian ryegrass; [7]): 50; Plant response rating, Ryegrass, Italian (Italian ryegrass; [1]): 50; Bromegrass, Downy plant response rating (downy bromegrass; [7]): 50; Plant response rating, Bromegrass, Downy (downy bromegrass; [2]): 40; Oat, Wild plant response rating (wild oat; [7]): 70; Plant response rating, Oat, Wild (wild oat; [1]): 60; Barley, Winter plant response rating (winter barley; Postemergence, scale 0 to 100): 45; Plant response rating, Barley, Winter (winter barley; [5]): 35; Plant response rating, Barley, Winter (winter barley; [6]): 35
3 | CCn1nc(C(C)(C)C)cc1C(=O)Nc1cccc(OC(F)(F)C(F)F)c1 [Compound 333] | 50 | 40 | 30 | 40 | 35 | 35 | 50 | 40 | 50 | 40 | 30 | 25 | 20 | 35 | 35 | 45 | 40 | 60 | 50 | 55 | Foxtail, Green plant response rating (green foxtail; [7]): 65; Canarygrass plant response rating (canarygrass; [7]): 45; Wheat plant response rating (wheat; [7]): 55; Plant response rating, Wheat (wheat; [1]): 50; Blackgrass plant response rating (blackgrass; Postemergence, scale 0 to 100): 55; Windgrass plant response rating (windgrass; [7]): 80; Plant response rating, Windgrass (windgrass; [1]): 50; Ryegrass, Italian plant response rating (Italian ryegrass; [7]): 55; Plant response rating, Ryegrass, Italian (Italian ryegrass; [1]): 50; Bromegrass, Downy plant response rating (downy bromegrass; [7]): 45; Oat, Wild plant response rating (wild oat; [7]): 55; Plant response rating, Oat, Wild (wild oat; [1]): 60; Plant response rating, Barley, Winter (winter barley; [5]): 45; Plant response rating, Barley, Winter (winter barley; [6]): 40
4 | CCNC(=O)c1cccc(NC(=O)c2nn(C(C)(C)CC)nc2CC)c1 [Compound 376] | 60 | 60 | 40 | 55 | 50 | 45 | 20 | 20 | 50 | 40 | 40 | 40 | 40 | 55 | 45 | 40 | 35 | 45 | 40 | 30 | Plant response rating, Foxtail, Green (green foxtail; [8]): 65; Plant response rating, Canarygrass (canarygrass; [8]): 65; Plant response rating, Wheat (wheat; [8]): 25; Blackgrass plant response rating (blackgrass; Postemergence, scale 0 to 100): 65; Plant response rating, Windgrass (windgrass; [8]): 65; Plant response rating, Ryegrass, Italian (Italian ryegrass; [8]): 65; Plant response rating, Bromegrass, Downy (downy bromegrass; [8]): 50; Plant response rating, Bromegrass, Downy (downy bromegrass; [2]): 35; Plant response rating, Oat, Wild (wild oat; [8]): 60; Barley, Winter plant response rating (winter barley; Postemergence, scale 0 to 100): 40; Plant response rating, Barley, Winter (winter barley; [5]): 20; Plant response rating, Barley, Winter (winter barley; [6]): 20
5 | C#CCNC(=O)c1cccc(NC(=O)c2nn(C(C)(C)C)nc2CC)c1 [Compound 380] | 60 | 60 | 60 | 45 | 40 | 40 | 25 | 20 | 55 | 45 | 40 | 60 | 45 | 50 | 45 | 65 | 55 | 60 | 55 | 30 | Plant response rating, Canarygrass (canarygrass; [4]): 30; Plant response rating, Blackgrass (blackgrass; [4]): 40; Plant response rating, Bromegrass, Downy (downy bromegrass; [2]): 60; Plant response rating, Bromegrass, Downy (downy bromegrass; [4]): 45; Plant response rating, Barley, Winter (winter barley; [5]): 20; Plant response rating, Barley, Winter (winter barley; [4]): 10; Plant response rating, Barley, Winter (winter barley; [6]): 20
